This is an account of results in article PMC5466365 (Journal of the American Chemical Society, 2016).

Common to all, as to assay type: biochemical
Experiment [1] deals with T1, HbHNL (Hevea brasiliensis, UniProt P52704). Briefly: benzaldehyde release, A280. The following applies: 50 mM citrate pH 5.0.
In experiment [2] the target is T2, MeHNL (Manihot esculenta, UniProt P52705). Nature of the experiment: benzaldehyde release, A280. Particulars: 50 mM citrate pH 5.0.
The target in experiment [3] is T1, HbHNL. The following applies: 5 mM citrate phosphate pH 5.
The target of experiment [4] is T2, MeHNL. The following applies: 5 mM citrate phosphate pH 5.

T1 sequence (P52704 whole entry): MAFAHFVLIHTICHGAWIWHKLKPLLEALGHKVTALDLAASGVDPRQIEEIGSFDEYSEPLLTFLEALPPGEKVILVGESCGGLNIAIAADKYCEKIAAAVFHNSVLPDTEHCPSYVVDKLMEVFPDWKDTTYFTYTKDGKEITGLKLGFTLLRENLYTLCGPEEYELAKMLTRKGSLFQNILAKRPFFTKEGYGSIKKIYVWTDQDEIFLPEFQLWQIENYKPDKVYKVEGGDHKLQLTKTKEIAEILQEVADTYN
T2 sequence (P52705 2-258): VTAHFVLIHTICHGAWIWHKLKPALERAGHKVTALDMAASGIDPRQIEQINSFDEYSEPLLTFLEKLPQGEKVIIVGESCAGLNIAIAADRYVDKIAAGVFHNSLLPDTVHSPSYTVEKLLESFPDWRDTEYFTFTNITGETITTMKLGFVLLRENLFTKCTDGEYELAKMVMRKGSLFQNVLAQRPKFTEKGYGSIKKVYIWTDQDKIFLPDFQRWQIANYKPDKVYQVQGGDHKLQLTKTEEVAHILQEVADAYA

Take `N#CC(O)c1ccccc1` (racemic) [mandelonitrile]: the “benzaldehyde release, A280” value on HbHNL [1] and at MeHNL [2] was “They also efficiently cleaved their unnatural substrate mandelonitrile” in each case.

Regarding `CC(C)(O)C#N` [acetone cyanohydrin], the “HCN release, modified König reaction” value on HbHNL [3] is given as “The best substrate is the natural one, acetone cyanohydrin”; at MeHNL [4] it was “The best substrate is the natural one, acetone cyanohydrin”.
